Test results reported in US7807623B2, “Use of pentagastrin to inhibit gastric acid secretion or as a diuretic” (The Regents of the University of California, priority 1999, dated 2010).
Values joined by “and” are separate entries in the source; they are usually repeats but may differ in a detail not shown here. Equal values may be shown once.

Key:
[1] = tested on: Pentagastrin-Induced Gastric Acid Secretion; assay: Continuous pentagastrin infusion model: gastric acid output after single i.v. dose; assay type: in vivo, human; conditions: for Acid Output, Treatment Period 0-6 h / Acid Output, Treatment Period 6-12 h / Acid Output, Treatment Period 12-18 h / Acid Output, Treatment Period 18-24 h: continuous PG 1 μg/kg/h, mean ± SD; for duration of action (time AO remained <10 mEq/h) / onset of response (time until AO decreased to <10 mEq/h and remained below for 1 h): mean±SD
Experimental: After 60 min of pentagastrin infusion, subjects received a single dose of i.v. pantoprazole (20, 40, 80, or 120 mg), i.v. famotidine (20 mg), or saline placebo. […] The study protocol was approved by the UCLA Institutional Review Board and conducted according to the provisions of the Declaration of Helsinki and its amendments. Written informed consent was obtained from each participant before enrollment, and the identity of each patient was kept confidential. Each subject underwent a prestudy screening that included a physical examination, electrocardiogram (ECG), laboratory blood and urine analysis, and a pregnancy test for women. The laboratory test included a complete blood count, blood chemistry tests, a test for human immunodeficiency virus, a screening for hepatitis B and C, and a urine drug screen. Subjects were excluded from the study if abnormalities in these parameters were detected. Maximum AO (MAO) were also determined during the screening period. MAO was estimated by the subcutaneous injection of PG (6 μg/kg), after which four 15-min samples were collected and analyzed (Table 1). […] Subjects who completed the screening examination and were eligible for the study were assigned to one of six treatment groups to receive i.v. doses of pantoprazole (20, 40, 80, or 120 mg), i.v. famotidine (20 mg), or placebo (normal saline). […] To stimulate MAO, subjects received an infusion of PG for 25 h (Peptavalon, Wyeth-Ayerst; 1.0 μg/kg/h) begun 1 h before the start of the study drug infusion. Gastric aspirates were collected by means of nasogastric (NG) tube in 15-min fractions from 1 h before study drug treatment through the end of treatment h 2 and in 30 min fractions from h 3 through the end of h 24. The variables measured were onset of response (time until AO decreased to <10 mEq/h and remained below this level for 1 h), duration of response (time from onset until time when AO levels rose to >10 mEq/h and remained so for 1 h), and cumulative AO 15 over 24 h. […] On the evening before study day 1, participants were admitted to the UCLA Clinical Research Center. […] PG administration and MAO analyses were performed. […] Because no fluid or food p.o. was permitted during the study period, subjects received maintenance i.v. fluid to prevent dehydration. Vital signs and electrolytes were monitored during this time. […] (1973) Dig. […] Because this was an exploratory study, statistical analysis consisted of presenting means and standard deviations.

[2] = Adverse event monitoring in the pentagastrin infusion study; assay type: in vivo, human; conditions: for subjects who withdrew because of adverse events: healthy subjects under continuous PG infusion
Excerpt: Adverse events were monitored continuously in the Clinical Research Center. Treatment-emergent adverse events were defined as adverse events not present at baseline or events present at baseline that worsened during treatment.

CCKB/gastrin receptor [3] = target: T1, CCKB/gastrin receptor (Rattus norvegicus, UniProt P30553); assay: Intrarenal gastrin infusion: renal hemodynamics, sodium excretion and urine volume; assay type: in vivo; conditions: L-365,260 80 pmoles/kg bolus after gastrin infusion
T1 construct: act specifically at CCKB/gastrin receptors on renal tubular cells; from tissue; host or cells: kidney of living male Wistar-Kyoto rats (in vivo)
T1 sequence (P30553 1-452): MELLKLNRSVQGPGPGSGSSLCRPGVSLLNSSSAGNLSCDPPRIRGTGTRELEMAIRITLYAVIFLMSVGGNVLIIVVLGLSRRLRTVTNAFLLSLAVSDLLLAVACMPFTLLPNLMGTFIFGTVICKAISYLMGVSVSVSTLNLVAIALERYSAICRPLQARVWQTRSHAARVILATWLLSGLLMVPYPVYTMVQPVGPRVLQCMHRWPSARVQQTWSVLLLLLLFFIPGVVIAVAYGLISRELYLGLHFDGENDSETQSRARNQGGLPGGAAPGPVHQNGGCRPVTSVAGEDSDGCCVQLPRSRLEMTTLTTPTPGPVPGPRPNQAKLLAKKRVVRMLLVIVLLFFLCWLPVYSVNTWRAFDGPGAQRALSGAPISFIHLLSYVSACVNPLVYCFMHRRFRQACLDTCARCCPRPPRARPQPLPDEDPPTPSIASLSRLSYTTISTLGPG
Experimental: (§1) Male Wistar-Kyoto rats (300 grams, 10-12 weeks old) (Harlan Sprague Dawley, Indianapolis, Ind.) were maintained on a regular Purina rat chow diet. Catheters were placed into the external jugular and femoral veins and left carotid artery and systemic arterial pressure was monitored. The right suprarenal artery was cannulated with a PE-10 catheter heat stretched to 180 mm and a flow catheter was secured around the right renal artery (Transonic Systems, Ithaca, N.Y.). GFR was determined after an intravenous infusion of normal saline containing [^14C]-inulin (0.01 mCi/10 ml (New England Nuclear, Boston, Mass.) at a rate of 5 ml/100 g body wt. for 30 minutes followed by an infusion of 1.8 ml/100 g body wt/hr). After an equilibration period of 120 minutes, 20 minute collections were begun. Meal gavage studies were performed with 2.5 ml/hr of liquefied rat chow administered via gastric tube. Gastrin 17-1 (Peninsula Laboratories, CA) was diluted in normal saline and infused (10 pmoles/kg/hr) via the right renal artery catheter. Following a basal period, rats received either L-365,260 (80 pmoles/kg, 5 min bolus) or vehicle alone and 20 minute collection periods were begun for determination of sodium and water excretion.

CCKB/gastrin receptor [4] = target: T1, CCKB/gastrin receptor; assay: Meal gavage: renal hemodynamics, sodium excretion and urine volume; assay type: in vivo
Experimental: as §1

Na+-K+-ATPase = Na+-K+-ATPase activity in isolated renal tubules after meal; assay type: biochemical, rat; conditions: direct intrarenal infusion 80 pmoles/kg prior to the meal
Experimental: Renal tubules (cortical and medullary thick ascending limb of Henle) were isolated (Slobodyansky et al. (1995) Am. J. Physiol. 268: F279-F284) and immediately homogenized (in a Polytron) in 4° C. reaction buffer [4 mM MgCl2, 100 mM tris(hydroxymethyl)aminomethane HCl, pH7.2]. The dephosphorylation of tris(hydroxymethyl)aminomethane-p-nitrophenyl-phosphate was used as the index of Na^+-K^+-ATPase activity (Eisner et al. (1997) Am. J. Physiol. 273: R317-R323).

[5] = cited from earlier work
[6] = 80 pmoles/kg bolus, more than 5-fold with meal alone
[7] = L-365,260 80 pmoles/kg 5 min bolus before meal gavage
[8] = single i.v. doses 80 and 120 mg

Compound: NC(N)=Nc1nc(CSCCC(N)=NS(N)(=O)=O)cs1 [Famotidine, famotidine]
- Peak inhibition of acid output ([1]; single i.v. dose 20 mg): 94%
- hourly AO averaged over the 24-h period ([1]; single i.v. dose 20 mg): 18.2 mEq/h
- loss of acid-suppressing effectiveness ([1]; single i.v. dose 20 mg): lost effectiveness after 6 h
- Acid Output, Treatment Period 0-6 h ([1]; single i.v. dose 20 mg): 4.4 ± 2.5 mEq/h
- Acid Output, Treatment Period 6-12 h ([1]; single i.v. dose 20 mg): 17.7 ± 5.1 mEq/h
- Acid Output, Treatment Period 12-18 h ([1]; single i.v. dose 20 mg): 25.8 ± 9.3 mEq/h
- Acid Output, Treatment Period 18-24 h ([1]; single i.v. dose 20 mg): 25.0 ± 10.4 mEq/h
- duration of action (time AO remained <10 mEq/h) ([1]; single i.v. dose 20 mg): 6.5 ± 2.1 h
- onset of response (time until AO decreased to <10 mEq/h and remained below for 1 h) ([1]; single i.v. dose 20 mg): 0.5 ± 0.2 h
- subjects who withdrew because of adverse events [2]: No subjects
- adverse events reported ([2]; i.v. 20 mg group under continuous PG infusion): Three subjects from the famotidine group complained of abdominal pain and dyspepsia and were noted to have small amounts of blood in their NG aspirate

Compound: Cc1cccc(NC(=O)N[C@@H]2N=C(c3ccccc3)c3ccccc3N(C)C2=O)c1 [L-365,260]
- effect on gastrin-stimulated FeNa (CCKB/gastrin receptor [3]): returned to near baseline values
- effect on gastrin-stimulated changes in urine flow rate (CCKB/gastrin receptor [3]): completely antagonized
- effect on gastrin-stimulated elevation in urinary excretion of sodium (CCKB/gastrin receptor [3]): returned to near baseline values
- inhibition of meal-stimulated increase in sodium and water excretion (CCKB/gastrin receptor [4]; 80 pmoles/kg bolus): up to 80%
- effect on meal-stimulated increase in urine flow rate (CCKB/gastrin receptor [4]; 80 pmoles/kg bolus, compared to vehicle alone): nearly completely inhibited
- meal-stimulated increase in fractional excretion of sodium (FeNa) in presence of antagonist (CCKB/gastrin receptor [4]; [6]): 2 fold
- meal-stimulated increase in urinary sodium (UNaV) in presence of antagonist (CCKB/gastrin receptor [4]; [6]): 2 fold
- effect on meal-induced increase in glomerular filtration rate (GFR) (CCKB/gastrin receptor [4]; [7]): inhibited
- effect on meal-induced increase in renal blood flow (RBF) (CCKB/gastrin receptor [4]; [7]): inhibited
- effect on Mean Arterial Pressure (MAP) (CCKB/gastrin receptor [4]; meal gavage study period, 80 pmoles/kg bolus): No effect
- effect on meal induced inhibition of Na+/K+-ATPase activity (Na+-K+-ATPase): complete reversal

Compound: COc1ccnc(C[S+]([O-])c2nc3ccc(OC(F)F)cc3[nH]2)c1OC (stereo not shown) [Pantoprazole, pantoprazole]
- AO suppressed to ([1]; 80 and 120 mg doses, all subjects, after 1 h and for the full 24-h period): < 10 mEq/h
- AO suppressed to ([1]; all i.v. doses (20, 40, 80, 120 mg)): < 10 mEq/h
- time after administration at which acid-suppressing activity was observed ([1]; i.v., in general): 15 to 20 min
- Peak inhibition of acid output ([1]; single i.v. dose 20 mg): 83%
- hourly AO averaged over the 24-h period ([1]; single i.v. dose 20 mg): 11.9 mEq/h
- Acid Output, Treatment Period 0-6 h ([1]; single i.v. dose 20 mg): 11.7 ± 10.5 mEq/h
- Acid Output, Treatment Period 6-12 h ([1]; single i.v. dose 20 mg): 13.6 ± 13.3 mEq/h
- Acid Output, Treatment Period 12-18 h ([1]; single i.v. dose 20 mg): 15.1 ± 13.7 mEq/h
- Acid Output, Treatment Period 18-24 h ([1]; single i.v. dose 20 mg): 14.2 ± 8.6 mEq/h
- duration of action (time AO remained <10 mEq/h) ([1]; single i.v. dose 20 mg): 8.4 ± 8.0 h
- Peak inhibition of acid output ([1]; single i.v. dose 40 mg): 90%
- hourly AO averaged over the 24-h period ([1]; single i.v. dose 40 mg): 7.6 mEq/h
- Acid Output, Treatment Period 0-6 h ([1]; single i.v. dose 40 mg): 8.1 ± 5.4 mEq/h
- Acid Output, Treatment Period 6-12 h ([1]; single i.v. dose 40 mg): 4.8 ± 4.0 mEq/h
- Acid Output, Treatment Period 12-18 h ([1]; single i.v. dose 40 mg): 7.3 ± 4.1 mEq/h
- Acid Output, Treatment Period 18-24 h ([1]; single i.v. dose 40 mg): 10.1 ± 3.7 mEq/h
- Peak inhibition of acid output ([1]; single i.v. dose 80 mg): 99%
- hourly AO averaged over the 24-h period ([1]; single i.v. dose 80 mg): 3.3 mEq/h
- Acid Output, Treatment Period 0-6 h ([1]; single i.v. dose 80 mg): 2.4 ± 1.5 mEq/h
- Acid Output, Treatment Period 6-12 h ([1]; single i.v. dose 80 mg): 1.2 ± 0.6 mEq/h
- Acid Output, Treatment Period 12-18 h ([1]; single i.v. dose 80 mg): 3.7 ± 1.9 mEq/h
- Acid Output, Treatment Period 18-24 h ([1]; single i.v. dose 80 mg): 6.1 ± 3.2 mEq/h
- duration of action (time AO remained <10 mEq/h) ([1]; single i.v. dose 80 mg): 21.2 ± 1.9 h
- onset of response (time until AO decreased to <10 mEq/h and remained below for 1 h) ([1]; single i.v. dose 80 mg): 0.8 ± 0.3 h
- Peak inhibition of acid output ([1]; single i.v. dose 120 mg): 100%
- hourly AO averaged over the 24-h period ([1]; single i.v. dose 120 mg): 2.4 mEq/h
- Acid Output, Treatment Period 0-6 h ([1]; single i.v. dose 120 mg): 1.3 ± 0.8 mEq/h
- Acid Output, Treatment Period 6-12 h ([1]; single i.v. dose 120 mg): 0.7 ± 0.2 mEq/h
- Acid Output, Treatment Period 12-18 h ([1]; single i.v. dose 120 mg): 3.7 ± 0.7 mEq/h
- Acid Output, Treatment Period 18-24 h ([1]; single i.v. dose 120 mg): 5.2 ± 0.4 mEq/h
- onset of response (time until AO decreased to <10 mEq/h and remained below for 1 h) ([1]; single i.v. dose 120 mg): 0.4 ± 0.2 h
- duration of acid output suppression [1, 8]: > 20 h
- onset of action [1, 8]: < 1 h
- suppression of acid output ([1]; single i.v. doses 80 and 120 mg, all subjects): 99-100%
- suppression of acid output ([1]; single i.v. doses 80 and 120 mg, all subjects, listed as pantoprazole): > 90%
- duration of acid output suppression ([1]; single i.v. doses 80 and 120 mg, listed as pantoprazole): ~24 h and < 21 h
- subjects who withdrew because of adverse events [2]: Three

Compound: CSCC[C@H](NC(=O)[C@H](Cc1c[nH]c2ccccc12)NC(=O)CCNC(=O)OC(C)(C)C)C(=O)N[C@@H](CC(=O)O)C(=O)N[C@@H](Cc1ccccc1)C(N)=O [Pentagastrin, N-t-butyloxycarbonyl-Beta-alanyl-L-tryptophyl-L-methionyl-L-aspartyl-L-phenyl-alanyl amide]
- solubility in dimethylformamide and dimethylsulfoxide [5]: soluble
- solubility in water, ethanol, ether, benzene, chloroform, ethyl acetate [5]: almost insoluble
